Measured values taken from ChEMBL document CHEMBL1201862, “PubChem BioAssay data set” (2004).
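Values below derive from 48-hour exposures of cells grown in 96-well plates, with endpoints linearly interpolated between the two concentrations bracketing the appropriate inhibition level. Abbreviation: GI50, concentration required for 50% inhibition of growth.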 Activity calls are given as the source filed them. Rule as the data show it: active = GI50 up to about 1.1 µM and inactive = higher.

How the values were obtained:
Assay in all cases: NCI-60 cell line screen, 48 h
786-0 = system: 786-0
U-251 = system: U-251
MDA-MB-435 = system: MDA-MB-435
HCT-116 = system: HCT-116
NCI-H226 = system: NCI-H226
SR = system: SR
RXF 393 = system: RXF 393
KM12 = system: KM12
SF-295 = system: SF-295
MDA-N = system: MDA-N
SNB-19 = system: SNB-19
COLO 205 = system: COLO 205
NCI-H460 = system: NCI-H460
OVCAR-8 = system: OVCAR-8
M14 = system: M14
HCC 2998 = system: HCC 2998
NCI-H522 = system: NCI-H522
SF-268 = system: SF-268
RPMI-8226 = system: RPMI-8226
T47D = system: T47D

Row | Compound | GI50 (786-0) | GI50 (U-251) | GI50 (MDA-MB-435) | GI50 (HCT-116) | GI50 (NCI-H226) | GI50 (SR) | GI50 (RXF 393) | GI50 (KM12) | GI50 (SF-295) | GI50 (MDA-N) | GI50 (SNB-19) | GI50 (COLO 205) | GI50 (NCI-H460) | GI50 (OVCAR-8) | GI50 (M14) | GI50 (HCC 2998) | GI50 (NCI-H522) | GI50 (SF-268) | GI50 (RPMI-8226) | GI50 (T47D)
1 | O=C1Nc2c(Cl)cc(Cl)cc2/C1=N/N=C/c1ccccc1O | 19.4 µM (inactive) | 17.2 µM (inactive) | 21.7 µM (inactive) | 17.5 µM (inactive) | 27.2 µM (inactive) | 16.3 µM (inactive) | 21.2 µM (inactive) | 26.4 µM (inactive) | 22.5 µM (inactive) | 17.4 µM (inactive) | 61.8 µM (inactive) | 16.4 µM (inactive) | 14.7 µM (inactive) | 21.4 µM (inactive) | 23.1 µM (inactive) | 17.9 µM (inactive) |  |  |  | 
2 | COC(=O)/C=C/COCC1C2CCC(=O)C21 (stereo unspecified) | > 100 µM (inactive) | > 100 µM (inactive) | > 100 µM (inactive) | > 100 µM (inactive) | > 100 µM (inactive) | > 100 µM (inactive) | > 100 µM (inactive) | > 100 µM (inactive) | > 100 µM (inactive) | > 100 µM (inactive) | > 100 µM (inactive) | > 100 µM (inactive) | > 100 µM (inactive) | > 100 µM (inactive) | > 100 µM (inactive) | > 100 µM (inactive) | > 100 µM (inactive) | > 100 µM (inactive) | > 100 µM (inactive) | 
3 | CN1N=CSC12C(=O)N(c1ccc(Cl)cc1)C(=O)N2c1ccc(Cl)cc1 (stereo unspecified) | 4.22 µM (inactive) | 3.67 µM (inactive) |  | 3.15 µM (inactive) | 3.04 µM (inactive) | 2.75 µM (inactive) | 5.33 µM (inactive) | 3.58 µM (inactive) | 3.28 µM (inactive) |  | 3.82 µM (inactive) | 1.93 µM (inactive) | 3.27 µM (inactive) | 3.51 µM (inactive) | 5.42 µM (inactive) | 3.33 µM (inactive) | 2.05 µM (inactive) | 5.41 µM (inactive) | 2.6 µM (inactive) | 
4 | CCOCN/C(N)=N\C#N | 23.9 µM (inactive) | > 100 µM (inactive) |  | > 100 µM (inactive) | > 100 µM (inactive) | 36.6 µM (inactive) | 61.8 µM (inactive) | > 100 µM (inactive) | > 100 µM (inactive) |  | > 100 µM (inactive) | > 100 µM (inactive) | > 100 µM (inactive) | > 100 µM (inactive) | > 100 µM (inactive) | > 100 µM (inactive) | > 100 µM (inactive) | > 100 µM (inactive) | > 100 µM (inactive) | 
5 | C/C(=N\NC(N)=O)C(CN1CCOCC1)C(c1ccccc1)c1c(O)c2ccccc2oc1=O (stereo unspecified) | > 100 µM (inactive) | > 100 µM (inactive) | > 100 µM (inactive) | > 100 µM (inactive) | > 100 µM (inactive) | > 100 µM (inactive) |  | > 100 µM (inactive) |  | > 100 µM (inactive) | > 100 µM (inactive) | > 100 µM (inactive) |  | > 100 µM (inactive) | > 100 µM (inactive) | > 100 µM (inactive) | > 100 µM (inactive) | > 100 µM (inactive) | > 100 µM (inactive) | 
6 | O=C1C(Cl)C(c2ccc(Cl)cc2)N1n1cnc2ccccc2c1=O (stereo unspecified) | > 100 µM (inactive) | > 100 µM (inactive) |  | > 100 µM (inactive) | > 100 µM (inactive) | 52.7 µM (inactive) | 76 µM (inactive) | 24.8 µM (inactive) | 82.8 µM (inactive) |  | > 100 µM (inactive) | > 100 µM (inactive) | > 100 µM (inactive) | > 100 µM (inactive) | > 100 µM (inactive) | > 100 µM (inactive) | 55.2 µM (inactive) | > 100 µM (inactive) | 40.6 µM (inactive) | 
7 | COC1C(O)CC(OC2CC(OC3CC(O[C@@H]4C(=O)c5c(cc6cc(OC7CC(OC8CC(O)C(O)C(C)O8)C(O)C(C)O7)c(C)c(O)c6c5O)C[C@H]4[C@H](OC)C(=O)[C@@H](O)[C@@H](C)O)OC(C)C3O)OC(C)C2O)OC1C (stereo partly specified) | < 0.0194 µM (active) | 0.0112 µM (active) |  | < 0.01 µM (active) | < 0.104 µM (active) | < 0.01 µM (active) | < 0.01 µM (active) | 0.0168 µM (active) | < 0.0173 µM (active) |  | < 0.0194 µM (active) | 0.0189 µM (active) | < 0.01 µM (active) | < 0.0193 µM (active) | 0.0267 µM (active) | 0.0136 µM (active) | < 0.0118 µM (active) | 0.0141 µM (active) | < 0.01 µM (active) | < 0.01 µM (active)
8 | O=C1C=CC(=O)c2c(NCC3CC3)ccc(NCC3CC3)c21 | 56.4 µM (inactive) | 55.7 µM (inactive) | 19.7 µM (inactive) | 37.8 µM (inactive) |  | 21.9 µM (inactive) |  | 33.6 µM (inactive) | 33.7 µM (inactive) |  | > 100 µM (inactive) | 19.7 µM (inactive) | 60.8 µM (inactive) | 56.2 µM (inactive) | 18.5 µM (inactive) | 57.5 µM (inactive) | 1.05 µM (active) |  | 17.1 µM (inactive) | 6.34 µM (inactive)
9 | O=C1N(Cl)C(=O)C(c2ccc(Cl)cc2)(c2ccc(Cl)cc2)N1Cl | 48.3 µM (inactive) | > 100 µM (inactive) |  | 72.6 µM (inactive) | > 100 µM (inactive) | 39.4 µM (inactive) | 22.6 µM (inactive) | 48.8 µM (inactive) | 55.3 µM (inactive) |  | > 100 µM (inactive) | 41.8 µM (inactive) | 52.2 µM (inactive) | 71.4 µM (inactive) | 34.4 µM (inactive) | > 100 µM (inactive) | 64.4 µM (inactive) | > 100 µM (inactive) | 41.2 µM (inactive) | 
10 | Cn1cc2ccccc2c1-c1nc(N)nc(F)n1 | > 100 µM (inactive) | > 100 µM (inactive) |  | > 100 µM (inactive) | 29.5 µM (inactive) | > 100 µM (inactive) | 82.8 µM (inactive) | > 100 µM (inactive) | 50.9 µM (inactive) |  | > 100 µM (inactive) | > 100 µM (inactive) | > 100 µM (inactive) | > 100 µM (inactive) | > 100 µM (inactive) | > 100 µM (inactive) | > 100 µM (inactive) | > 100 µM (inactive) | > 100 µM (inactive) | 
11 | CS(=O)(=O)OCCN(CCOS(C)(=O)=O)c1ccc(/C=N/N=c2/nc[nH]c3nc[nH]c23)cc1 | 16.3 µM (inactive) | 16.3 µM (inactive) |  | 17.3 µM (inactive) | 19.3 µM (inactive) | 4.57 µM (inactive) | 15.7 µM (inactive) | 15.6 µM (inactive) | 14.9 µM (inactive) |  | 27.6 µM (inactive) | 17.2 µM (inactive) | 7.76 µM (inactive) | 20.7 µM (inactive) | 17.6 µM (inactive) | 19.4 µM (inactive) | 12.3 µM (inactive) | 12.9 µM (inactive) | 15.3 µM (inactive) | 
12 | NC(CNO)C(=O)O (stereo unspecified) | > 100 µM (inactive) | > 100 µM (inactive) | > 100 µM (inactive) | > 100 µM (inactive) | > 100 µM (inactive) |  | > 100 µM (inactive) | > 100 µM (inactive) | > 100 µM (inactive) | > 100 µM (inactive) | > 100 µM (inactive) | > 100 µM (inactive) | > 100 µM (inactive) | > 100 µM (inactive) | > 100 µM (inactive) |  | > 100 µM (inactive) | > 100 µM (inactive) | > 100 µM (inactive) | > 100 µM (inactive)
13 | NC1=Nc2ccccc2Sc2ccccc21 | > 100 µM (inactive) | > 100 µM (inactive) |  | 35.9 µM (inactive) | 24.4 µM (inactive) | > 100 µM (inactive) | 95.7 µM (inactive) | > 100 µM (inactive) | > 100 µM (inactive) |  | 87.3 µM (inactive) | > 100 µM (inactive) | > 100 µM (inactive) | > 100 µM (inactive) | > 100 µM (inactive) | > 100 µM (inactive) | 60.3 µM (inactive) | 56.9 µM (inactive) | 77.4 µM (inactive) | 
14 | CC(C)(C)c1cc(C(O)(C(F)(F)F)C(F)(F)F)c2c(c1)C(C(F)(F)F)(C(F)(F)F)OC(c1ccccc1)(C(C)(C)C)N2 (stereo unspecified) | > 100 µM (inactive) | 3.3 µM (inactive) |  | 3.72 µM (inactive) | 3.24 µM (inactive) | 2.58 µM (inactive) | 3.37 µM (inactive) | 4.5 µM (inactive) | 6.56 µM (inactive) |  | 4.65 µM (inactive) | 4.08 µM (inactive) | 2.65 µM (inactive) | 6.05 µM (inactive) | 0.659 µM (active) | 8.07 µM (inactive) | 3.03 µM (inactive) |  | 3.07 µM (inactive) | 
15 | CCN(CC)c1nnc(CCCCCCCCc2nnc(N(CC)CC)o2)o1 | > 100 µM (inactive) | > 100 µM (inactive) | > 100 µM (inactive) | > 100 µM (inactive) | > 100 µM (inactive) |  | > 100 µM (inactive) | > 100 µM (inactive) | > 100 µM (inactive) | > 100 µM (inactive) | > 100 µM (inactive) | > 100 µM (inactive) | > 100 µM (inactive) | > 100 µM (inactive) | > 100 µM (inactive) |  | > 100 µM (inactive) | > 100 µM (inactive) |  | 
16 | C#CC1(O)CCC2[C@@H]3CCc4cc(Oc5nc(F)nc(-c6c7ccccc7cn6C)n5)ccc4C3CC[C@@]21C (stereo partly specified) | > 100 µM (inactive) | > 100 µM (inactive) |  | > 100 µM (inactive) | > 100 µM (inactive) | > 46.3 µM (inactive) | > 93.1 µM (inactive) | > 100 µM (inactive) | > 100 µM (inactive) |  | > 100 µM (inactive) | > 78.9 µM (inactive) | > 79.3 µM (inactive) | > 100 µM (inactive) | > 100 µM (inactive) | > 100 µM (inactive) | 89.3 µM (inactive) | > 88.1 µM (inactive) | > 47.4 µM (inactive) | 
